{"source": "patent US8642834B2", "about": "“Methods for the identification of agents that inhibit mesenchymal-like tumor cells or their formation” (OSI Pharmaceuticals, LLC, priority 2009, dated 2014)", "assay_type_in_all_cases": "cell-based, human", "key": {"CFPAC1 cells": {"test_system": "CFPAC1 cells", "assay": "Doubling time after ligand treatment", "conditions": "after 7 day ligand treatment, versus untreated", "experimental": "Cells were plated and treated with ligand for 7 days. On day 7, cells were counted and re-plated on 6 cm cell culture dishes. On days 3, 5, 7, 10 and 12, cells were trypsinized and counted to determine the total number of cells in the dish, in duplicate. Doubling time was calculated using the multiple time point method on the website www.doubling-time.com."}, "CFPAC-1 cells [1]": {"test_system": "CFPAC-1 cells", "assay": "Induction of EMT by growth factors and cytokines, E-cadherin and vimentin immunoblotting", "conditions": "CFPAC-1 cells treated 7 days with ligand", "experimental": "The CFPAC1 cell line was cultured in DMEM media (Gibco #11960) supplemented with 10% FBS (Sigma), 2 mM L Glutamine (Gibco), at 37° C., 5% CO2. For 7 day treatments, cells were seeded on tissue culture plastic in complete growth media and allowed to attach overnight at cell densities that would provide approximately 60-80% confluence at end of experiment. Ligand and/or inhibitor was added the following day (Day 0) in complete growth media and incubated at 37° C., 5% CO2. Ligand source and concentrations used are as follows: [1] From R&D systems, SDF-1α (stromal derived factor-1 alpha) at 100 ng/ml, TRANCE (TNF-related activation induced cytokine) at 50 ng/ml, FGF1 (fibroblast growth factor acidic) at 10 ng/ml, FGF2 (fibroblast growth factor basic) at 10 ng/ml, BMP4 (bone morphogenetic protein 4) at 100 ng/ml, BMP7 (bone morphogenetic protein 7) at 100 ng/ml, IGF2 (insulin-like growth factor 2) at 100 ng/ml, OSM (Oncostatin M) at 100 ng/ml, NRG1 (Neuregulin-1) at 50 ng/ml, PDGFaa (Platelet derived growth factor a) at 50 ng/ml, PDGFbb (platelet derive growth factor b) at 30 ng/ml, Ang2 (Angiopoeitin 2) at 400 ng/ml, amphiregulin at 100 ng/ml, HMGB 1 (Human high-mobility group box 1 protein) at 50 ng/ml; [2] From Genscript, LIF (Leukemia inhibitory factor) at 20 ng/ml, GM-CSF (Granulocyte macrophage colony stimulating factor) at 25 ng/ml, M-CSF (Macrophage colony stimulating factor) at 50 ng/ml; [3] From Anaspec, PAR1 (Protease activated receptor 1 agonist) at 100 μM; PAR2 (Protease activated receptor 2 agonist; peptide SLIGKV-NH2, Cat. No. 60217-1) at 100 μM; PAR4 (Protease activated receptor […] agonist; peptide AYPGKF-NH2, Cat. No. 60218-1) at 100 μM; [4] From Peprotech, HGF (Hepatocyte Growth Factor) at 100 ng/ml; IL-31 (Interleukin-31) at 50 ng/ml, IL-33 (Interleukin-33) at 50 ng/ml, IL1-a (Interleukin-1 alpha) at 10 ng/ml, CTGF (Connective tissue growth factor) at 20 ng/ml, WISP1 (Wnt-1 inducible signaling pathway protein) at 20 ng/ml, PTHrP ([…] hormone-related protein) at 50 ng/ml, MCP1 (monocyte chemotactic protein-1) at 50 ng/ml; and [5] from Sigma, Fulvestrant at 1 μM. Fresh medium containing ligand and/or inhibitor was added 3-4 days after initial dose, and at Day 7 cells were harvested for western blot analysis.\nCells were harvested by washing once with PBS, and lysing on ice for 10 minutes with scraping (using a Cell Lifter, Corning Inc. #3008) in ice cold RIPA buffer (Sigma R0278) containing Protease inhibitor (Sigma P8340), Phosphatase inhibitors (Sigma P2850, P5726) and 200 μM Sodium Vanadate. Supernatents were micro-centrifuged at max speed, 4° C. for 10 minutes. Protein content was quantitated using the BCA method (Pierce #23225) and samples were normalized to total protein in Laemli buffer and heated at 100° C. for 10 minutes. SDS PAGE was run using a Bis-Tris gel system (Invitrogen NuPAGE) with MOPS buffer (Invitrogen NP0001), transferred onto nitrocellulose using the iBLOT system (Invitrogen) and blocked in PBS-T (0.1% Tween 20), 5% non-fat milk or BSA in guidance with primary Ab supplier requirements. All primary antibodies were incubated overnight at 4° C. in PBS-T (0.1% Tween 20) in either 5% non-fat milk or BSA, diluted to the following working dilutions: anti E Cadherin (Santa Cruz #sc-21791) 1:500 dilution; anti Vimentin (BD Biosciences #550513) 1:2000 dilution;); anti GAPDH HRP conjugate (Santa Cruz sc-25778) 1:1000 dilution; anti β-Actin (Sigma, A5441) 1:10,000 dilution. […]"}, "CFPAC-1 cells [2]": {"test_system": "CFPAC-1 cells", "assay": "MET/EMT reversion experiment (ligand withdrawal)", "conditions": "ligand 14 days, then removed; morphology and E-cadherin/vimentin immunoblot", "experimental": "Cells were cultured in complete medium with and without ligand for 14 days, during which time the media and ligand treatment was replaced every 3-4 days. 3 Days prior to the first time point (Day 14), cells were trypsinised, counted and seeded into plastic 35 mm dishes at appropriate seeding densities for the first 3 collection time points. 3 Days prior to the last of the 3 collection time points, the procedure was repeated for the second 3 collection time points, and so on until all time points were collected. Ligand was removed from all cultures at Day 14. At the time of harvest, cells were harvested as described in the western blotting section above. All samples were micro-centrifuged and stored at −80° C. until the end of the experiment, at which time all samples were processed for western blotting."}}, "data": [{"substance": "HGF: Hepatocyte Growth Factor from Peprotech, used at 100 ng/ml", "values": [{"measurement": "Effect on doubling time", "setting": "CFPAC1 cells", "result": "did not increase the doubling time"}, {"measurement": "Induction of EMT (E-cadherin down, vimentin up)", "setting": "CFPAC-1 cells [1]", "result": "most complete EMT"}, {"measurement": "Reversal of EMT upon withdrawal of ligand", "setting": "CFPAC-1 cells [2]", "result": "can be reversed"}]}]}
